Measurements from patent publication US9375496B2, “Halogenated compounds for cancer imaging and treatment and methods for their use” (The University of British Columbia, priority 2013, dated 2016).

Assays:
[1] = molecular target: T1, recombinant LBD of estrogen receptor (ER) (Homo sapiens, UniProt P03372); assay: Competitive ligand-binding assay (fluorescent polarization), recombinant ER LBD; details: 1 nM fluorescently labeled ligand, 5 h incubation, serial dilution
T1 sequence (P03372 311-547 limits assumed): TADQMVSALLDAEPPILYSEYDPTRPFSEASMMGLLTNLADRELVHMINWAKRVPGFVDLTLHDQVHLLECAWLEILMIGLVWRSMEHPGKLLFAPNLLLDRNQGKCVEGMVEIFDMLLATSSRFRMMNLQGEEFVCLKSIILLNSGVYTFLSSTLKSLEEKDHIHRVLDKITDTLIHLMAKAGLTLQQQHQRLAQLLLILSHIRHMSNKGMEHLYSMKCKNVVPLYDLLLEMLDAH
Description: (§1) Competitive ligand-binding assays to detect the displacement of fluorescently labeled ligand from recombinant LBDs (ligand binding domains) of AR, PR, GR and estrogen receptor (ER) by R1881, MDV3100, Z (also referred to as EPI-002 or EPI) or 8d (also referred to as iodinated EPI) were performed. FIGS. 14A-14E display competitive ligand-binding curves to indicate whether R1881, Z, antiandrogens (enzalutamide, hydroxyflutamide, bicalutamide) or 8d can displace 1 nM fluorescently labeled cognant ligand from recombinant LBDs of steroid hormone receptors by using fluorescent polarization (mP). Serial dilution was performed for each test compound. Mixtures were incubated for 5 h before measurement of fluorescent polarization.

[2] = molecular target: T2, recombinant LBD of AR (Homo sapiens, UniProt P10275); assay: Competitive ligand-binding assay (fluorescent polarization), recombinant AR LBD; details: 1 nM fluorescently labeled ligand, 5 h incubation, serial dilution
T2 sequence (P10275 669-900 limits assumed): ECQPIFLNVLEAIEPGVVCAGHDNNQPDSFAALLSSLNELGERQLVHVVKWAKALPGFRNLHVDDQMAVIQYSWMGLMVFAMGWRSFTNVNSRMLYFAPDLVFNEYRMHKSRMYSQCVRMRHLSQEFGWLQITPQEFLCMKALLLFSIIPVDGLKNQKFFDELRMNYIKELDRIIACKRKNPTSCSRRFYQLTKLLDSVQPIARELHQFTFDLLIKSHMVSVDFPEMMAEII
Description: as §1

[3] = molecular target: T3, AR (Homo sapiens, UniProt P10275, T878A); assay: PSA(6.1 kb)-luciferase reporter assay in LNCaP cells (androgen-induced AR transcriptional activity); assay type: cell-based
T3 construct: LNCaP cells with endogenous AR; endogenous in cells; host or cells: LNCaP
T3 sequence (P10275 1-920 T878A): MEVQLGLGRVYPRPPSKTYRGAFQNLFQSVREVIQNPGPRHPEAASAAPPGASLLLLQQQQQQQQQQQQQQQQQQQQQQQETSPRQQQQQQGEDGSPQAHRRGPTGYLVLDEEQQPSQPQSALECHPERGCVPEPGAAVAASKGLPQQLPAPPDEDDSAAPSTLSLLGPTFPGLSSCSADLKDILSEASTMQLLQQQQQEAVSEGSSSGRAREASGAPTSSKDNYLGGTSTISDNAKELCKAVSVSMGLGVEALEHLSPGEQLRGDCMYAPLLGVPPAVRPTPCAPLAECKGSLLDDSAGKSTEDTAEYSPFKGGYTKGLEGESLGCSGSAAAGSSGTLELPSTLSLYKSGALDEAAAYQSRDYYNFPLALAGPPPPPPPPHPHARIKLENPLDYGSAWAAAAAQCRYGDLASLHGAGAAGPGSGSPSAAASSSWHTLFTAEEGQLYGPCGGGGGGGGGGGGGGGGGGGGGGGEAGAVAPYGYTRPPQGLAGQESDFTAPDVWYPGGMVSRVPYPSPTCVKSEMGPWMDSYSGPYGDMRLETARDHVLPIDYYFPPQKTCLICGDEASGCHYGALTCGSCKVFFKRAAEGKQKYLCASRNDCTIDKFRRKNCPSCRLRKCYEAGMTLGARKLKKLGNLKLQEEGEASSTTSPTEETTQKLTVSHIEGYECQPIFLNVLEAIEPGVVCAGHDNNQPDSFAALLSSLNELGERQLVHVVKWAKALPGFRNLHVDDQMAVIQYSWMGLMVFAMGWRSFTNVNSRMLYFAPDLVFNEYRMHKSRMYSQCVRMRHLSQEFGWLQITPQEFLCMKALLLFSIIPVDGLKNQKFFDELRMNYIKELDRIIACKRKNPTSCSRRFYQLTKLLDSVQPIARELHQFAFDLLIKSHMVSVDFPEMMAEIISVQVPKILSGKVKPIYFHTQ
Description: The PSA-luciferase (6.1 kb) reporter contains functional AREs to which AR binds in response to androgen to induce luciferase activity. LNCaP cells were transfected with the PSA(6.1 kb)-luciferase reporter for 24 h, and then treated with indicated concentration of 8d (also referred as EPI-iodide or iodinated EPI) with synthetic androgen, R1881 (1 nM) for 24 h. After 24 h of incubation with R1881, the cells were harvested, and relative luciferase activities were determined (FIG. 1A). To determine the IC50, treatments were normalized to the predicted maximal activity induction (in the absence of test compounds, vehicle only) (FIG. 1B).
To measure effect on AR, after the LNCaP cells were transfected with the PSA(6.1 kb)-luciferase reporter for 24 h, they were then treated with DMSO, 5 μM MDV3100, 25 μM Z (also referred to as EPI-002 or EPI), or 1.9 μM 8d with or without 1 nM R1881 for 24 h (FIG. 2A).
LNCaP cells were transiently transfected with PSA (6.1 kb)-luciferase for 24 h prior to pre-treatment with compounds of the invention (e.g., compounds 9d, 10d, 11d) ranging in concentration from 62.5 ng/ml to 1.5 ug/ml for 1 hour before the addition of vehicle, or synthetic androgen, R1881 (1 nM) to induce luciferase production. After 24 h of incubation with R1881, the cells were harvested, and relative luciferase activities were determined. To determine the IC50, treatments were normalized to the predicted maximal activity induction (in the absence of test compounds, vehicle only) (FIG. 1B).

[4] = molecular target: T4, recombinant LBD of GR (Homo sapiens, UniProt P04150); assay: Competitive ligand-binding assay (fluorescent polarization), recombinant GR LBD; details: 1 nM fluorescently labeled ligand, 5 h incubation, serial dilution
T4 sequence (P04150 524-758 limits assumed): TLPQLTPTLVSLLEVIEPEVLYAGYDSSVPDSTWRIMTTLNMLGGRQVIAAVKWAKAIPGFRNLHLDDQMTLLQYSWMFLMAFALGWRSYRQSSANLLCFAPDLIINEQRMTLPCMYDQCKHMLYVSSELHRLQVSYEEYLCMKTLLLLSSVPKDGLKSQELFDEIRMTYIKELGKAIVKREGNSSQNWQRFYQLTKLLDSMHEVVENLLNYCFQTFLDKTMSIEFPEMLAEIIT
Description: as §1

Structure (SMILES): CC(C)(c1ccc(OC[C@H](O)CO)cc1)c1ccc(OC[C@H](O)CCl)c(I)c1 [Compound 8d, (R)-3-(4-(2-(4-((S)-3-chloro-2-hydroxypropoxy)-3-iodophenyl)propan-2-yl)phenoxy)propane-1,2-diol]
- binding to LBD of ER (displacement of fluorescently labeled ligand) [1]: does not bind
- binding to LBD of AR (displacement of fluorescently labeled ligand) [2]: does not bind
- androgen-induced PSA luciferase activity ([3]; 1.9 μM 8d, 1 nM R1881, 24 h, LNCaP cells (FIG. 2A)): strongly inhibited
- IC50 ([3]; LNCaP cells, PSA(6.1 kb)-luciferase, R1881 1 nM 24 h, representative experiment, read-out: IC50 for inhibition of AR transcriptional activity): 1170 ± 220 nM
- binding to LBD of GR (displacement of fluorescently labeled ligand) [4]: does not bind
